US20190077774A1, “PEROXISOME PROLIFERATOR-ACTIVATED RECEPTOR AGONISTS” (City of Hope, priority 2017, published 2019)

What was measured:
[1] = target: T1, human PPARα (Homo sapiens, UniProt Q07869); test: PPAR-GAL4 transactivation assay in transiently transfected CV-1 cells; format: cell-based; conditions: PPAR-GAL4 chimeric receptor, CV-1 cells; read-out: EC50(nM) hPPARα
T1 construct: expressed in transfected cells; host or cells: CV-1 (monkey kidney) cells, transient transfection
T1 sequence (Q07869 159-468): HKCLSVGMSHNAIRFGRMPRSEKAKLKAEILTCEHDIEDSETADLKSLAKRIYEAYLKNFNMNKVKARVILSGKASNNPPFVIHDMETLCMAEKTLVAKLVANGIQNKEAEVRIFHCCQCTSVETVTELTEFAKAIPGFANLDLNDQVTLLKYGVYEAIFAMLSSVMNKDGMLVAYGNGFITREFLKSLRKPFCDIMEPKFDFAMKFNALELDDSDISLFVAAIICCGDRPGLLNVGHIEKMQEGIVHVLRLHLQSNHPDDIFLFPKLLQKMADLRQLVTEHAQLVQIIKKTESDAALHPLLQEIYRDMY
Protocol: (§1) To assess the functional transcriptional activity of these compounds, cell-based assays using chimeric receptor Gal4 DNA-binding domain (DBD)-NR ligand binding domain cotransfection assay (LBDs of PPARα, PPARγ, and PPARδ) were performed. As an initial screen to determine the PPARα activity and selectivity, all compounds were evaluated for in vitro potency and selectivity by transfection testing, using CV-1 cells transfected with human and mouse PPARs. MH100×4 is a luciferase reporter with four copies of a GAL4 UASG response element, where GAL-I refers to the ligand-binding domain of the indicated receptor fused to the C-terminus of the GAL4 DNA-binding domain. Assays were performed using a Biomek automated workstation in which the genes for the nuclear receptor, as well as a plasmid containing a response element upstream of a luciferase cDNA, are transfected into CV-1 cells. Compounds were evaluated for their ability to activate human and mouse PPARs at […] test concentrations. […] The transactivation activity of the series of compounds (DY121-132, 10a-g) toward PPARα was expressed as EC50, which is the concentration of the test compound that affords half-maximum activity, as summarized in Table 1.
Cell-based reporter gene assays Cell based transactivation assays were performed in CV 1 cells as described (Forman, et al.). PPARα activity was assayed with a GAL4 reporter construct and fusion proteins containing the ligand binding domains of human PPARα, human PPARγ and human PPARδ linked to the DNA binding domain of yeast GAL4. Reporter constructs (300 ng/10^5 cells) and cytomegalovirus-driven expression vectors (20-50 ng/10^5 cells) were added as indicated along with CMX-b-gal (500 ng/10^5 cells) as an internal control. Cells were transiently transfected by Lipofectamine as described. Cells were incubated with DNA complexed liposomes for 2 h and subsequently treated for approximately 45 h with phenol red free DMEM FBS containing the indicated compounds. After exposure to ligand, the cells were harvested and assayed for luciferase and β-galactosidase activity. All points were assayed in triplicate and varied by less than 15%. Each experiment was repeated three or more times with similar results. Fold activation is reported.
(§2) In vitro binding and transfection studies. As an initial screen to determine the PPARα, PPARγ, and PPARδ activity, all compounds were evaluated for in vitro potency and selectivity by transfection testing, using CV-1 cells transfected with human and mouse PPARs. MH100×4 is a luciferase reporter with four copies of a GAL4 USAG response element, where GAL-I refers to the ligand-binding domain of the indicated receptor fused to the C-terminus of the GAL4 DNA-binding domain. Assays were performed using a Biomek automated workstation in which the gene for the nuclear receptor, as well as a plasmid containing a response element upstream of a luciferase cDNA, are transfected into CV-1 cells. Compounds were evaluated for their ability to activate human PPARs at 1, 2.5, 3, and 5 uM test concentrations.
(§3) Compounds were screened for agonist activity towards PPAR-GAL4 chimeric receptors in transiently transfected CV-1 cells as described. EC50 is the concentration of test compound that gave 50% maximum efficacy.

[2] = target: T2, mouse PPARα (Mus musculus, UniProt P23204); test: as above; format: cell-based; conditions: PPAR-GAL4 chimeric receptor, read-out: EC50(nM) mPPARα
T2 construct: expressed in transfected cells; host or cells: CV-1 (monkey kidney) cells, transient transfection
T2 sequence (P23204 159-468): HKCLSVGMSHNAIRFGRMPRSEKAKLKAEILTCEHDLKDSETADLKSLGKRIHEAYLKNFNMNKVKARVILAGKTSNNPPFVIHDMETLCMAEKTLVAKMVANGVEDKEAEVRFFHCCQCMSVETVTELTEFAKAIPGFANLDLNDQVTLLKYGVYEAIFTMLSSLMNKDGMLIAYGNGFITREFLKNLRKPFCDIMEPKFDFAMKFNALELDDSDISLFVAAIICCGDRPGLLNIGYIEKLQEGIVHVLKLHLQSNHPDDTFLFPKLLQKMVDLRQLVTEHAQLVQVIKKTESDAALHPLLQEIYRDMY
Protocol: as §1, §2, §3

[3] = target: T3, PPARα (Homo sapiens, UniProt Q07869); test: PPRE-luc reporter assay in CV-1 cells co-transfected with PPARα and RXRα expression plasmids; format: cell-based; conditions: luciferase reporter
T3 construct: expressed in transfected cells; host or cells: CV-1 (monkey kidney) cells
T3 sequence (Q07869 1-468): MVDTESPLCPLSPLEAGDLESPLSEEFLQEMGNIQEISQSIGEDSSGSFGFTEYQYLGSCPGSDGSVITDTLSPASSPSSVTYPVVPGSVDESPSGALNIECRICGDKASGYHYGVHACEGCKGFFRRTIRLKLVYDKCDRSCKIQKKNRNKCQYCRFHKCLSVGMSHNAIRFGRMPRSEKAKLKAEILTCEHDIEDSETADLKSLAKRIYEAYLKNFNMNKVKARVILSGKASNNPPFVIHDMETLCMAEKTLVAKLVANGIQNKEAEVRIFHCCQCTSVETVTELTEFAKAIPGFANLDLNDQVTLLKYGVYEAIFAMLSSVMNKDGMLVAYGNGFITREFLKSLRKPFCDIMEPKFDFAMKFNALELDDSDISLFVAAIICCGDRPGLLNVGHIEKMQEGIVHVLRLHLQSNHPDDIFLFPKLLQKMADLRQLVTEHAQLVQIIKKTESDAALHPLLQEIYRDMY
T3 sequence (P19793 1-462 partner): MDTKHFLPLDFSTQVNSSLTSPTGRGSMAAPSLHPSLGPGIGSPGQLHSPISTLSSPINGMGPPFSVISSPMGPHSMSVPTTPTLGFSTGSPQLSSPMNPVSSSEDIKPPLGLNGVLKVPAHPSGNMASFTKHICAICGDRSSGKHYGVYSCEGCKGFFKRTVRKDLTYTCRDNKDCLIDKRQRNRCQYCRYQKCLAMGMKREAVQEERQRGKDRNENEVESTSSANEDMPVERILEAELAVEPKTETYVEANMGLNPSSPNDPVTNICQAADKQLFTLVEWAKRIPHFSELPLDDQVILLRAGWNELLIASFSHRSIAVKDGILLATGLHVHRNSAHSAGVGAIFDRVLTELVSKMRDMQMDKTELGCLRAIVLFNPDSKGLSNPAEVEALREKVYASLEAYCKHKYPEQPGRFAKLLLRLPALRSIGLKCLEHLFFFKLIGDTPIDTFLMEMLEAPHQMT
Protocol: In brief, monkey kidney CV-1 cells were co-transfected with appropriate reporter constructs and expression vectors. The fold activation of the reporter construct by ligand was determined at several concentrations of selected compounds (FIG. 4).^20 To examine the effect of DY-compound on PPARα-mediated PPRE transcriptional activation, a PPRE-luc reporter assay was conducted using a PPRE-driven luciferase reporter-gene (PPRE-luc) plasmid and PPARα and RXRα gene expression plasmids in CV-1 cells.

[4] = test system: C57Bl/6J female mice; test: Serum triglyceride and lipid effects in C57Bl/6J female mice; format: in vivo; conditions: FIG. 7

Row | Compound | EC50 [1] [nM] | EC50 [2] [nM] | PPARα activation / PPRE-luc activity [3] | dose-response of triglyceride suppression [4]
1 | C=Cc1ccc(Cn2nc(CCCc3ccc(OC(C)(C)C(=O)O)cc3)n(Cc3ccc(C)cc3)c2=O)cc1 [10h] | 12 | 20 | – | –
2 | Cc1ccc(Cn2nc(CCCc3ccc(OC(C)(C)C(=O)O)cc3)n(Cc3ccccc3)c2=O)cc1 [10c, 2-(4-{3-[4-Benzyl-1-(4-methyl-benzyl)-5-oxo-4,5-dihydro-1H[1,2,4]triazol-3-yl]-propyl}-phenoxy)-2-methyl-propionic acid] | 1.5 | 20 | – | –
3 | Cc1ccc(Cn2nc(CCCc3ccc(OC(C)(C)C(=O)O)cc3)n(Cc3ccccc3Cl)c2=O)cc1 [10g, 2-(4-{3-[2-Chloro-benzyl-1-(4-methyl-benzyl)-5-oxo-4,5-dihydro-11H[1,2,4]triazol-3-yl]-propyl}-phenoxy)-2-methyl-propionic acid] | 1 | 10 | highest PPARα activation | Dose-response suppression
4 | COc1cc(Cn2c(CCCc3ccc(OC(C)(C)C(=O)O)cc3)nn(Cc3ccc(C)cc3)c2=O)cc(OC)c1OC [10f, 2-(4-{3-[3,4,5-Trimethoxy-benzyl-1-(4-methyl-benzyl)-5-oxo-4,5-dihydro-1H[1,2,4]triazol-3-yl]-propyl}-phenoxy)-2-methyl-propionic acid] | 3 | 30 | – | Dose-response suppression
5 | Cc1ccc(Cn2nc(CCCc3ccc(OC(C)(C)C(=O)O)cc3)n(Cc3ccc(C)cc3)c2=O)cc1 [10e, 2-(4-{3-[4-Methyl-benzyl-1-(4-methyl-benzyl)-5-oxo-4,5-dihydro-1H[1,2,4]triazol-3-yl]-propyl}-phenoxy)-2-methyl-propionic acid] | 1 | 3 | highest PPARα activation | –
6 | COc1cccc(Cn2c(CCCc3ccc(OC(C)(C)C(=O)O)cc3)nn(Cc3ccc(C)cc3)c2=O)c1 [10b, 2-(4-{3-[4-(3-Methoxy-benzyl)-1-(4-methyl-benzyl)-5-oxo-4,5-dihydro-1H[1,2,4]triazol-3-yl]-propyl}-phenoxy)-2-methyl-propionic acid] | 2 | 20 | – | –
7 | Cc1ccc(Cn2nc(CCCc3ccc(OC(C)(C)C(=O)O)cc3)n(Cc3ccc(F)cc3)c2=O)cc1 [10d, 2-(4-{3-[4-Fluoro-benzyl-1-(4-methyl-benzyl)-5-oxo-4,5-dihydro-1H[1,2,4]triazol-3-yl]-propyl}-phenoxy)-2-methyl-propionic acid] | 1.5 | 10 | – | –
